# In ChEMBL document CHEMBL1201862, “PubChem BioAssay data set” (2004):
#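 All cell lines were grown in 96-well plates and treated with compound for 48 hours. At the GI50, growth is halved.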 The source made the active and inactive calls. Cut-off read from the data, not from the text of the source: active = GI50 up to about 1.1 µM and inactive = higher.
# What was measured:
# Experiment in all cases: DTP human tumour cell line panel, 48 h
# SNB-75 = system: SNB-75
# NCI-H522 = system: NCI-H522
# HT-29 = system: HT-29
# MDA-N = system: MDA-N
# UACC-257 = system: UACC-257
# EKVX = system: EKVX
# SK-MEL-2 = system: SK-MEL-2
# HOP-62 = system: HOP-62
# DU-145 = system: DU-145
# BT-549 = system: BT-549
# K562 = system: K562
# TK-10 = system: TK-10
# UO-31 = system: UO-31
# PC-3 = system: PC-3
# HCT-15 = system: HCT-15
# MDA-MB-435 = system: MDA-MB-435
# OVCAR-3 = system: OVCAR-3
# HOP-92 = system: HOP-92
Structure (SMILES),GI50 (SNB-75),GI50 (NCI-H522),GI50 (HT-29),GI50 (MDA-N),GI50 (UACC-257),GI50 (EKVX),GI50 (SK-MEL-2),GI50 (HOP-62),GI50 (DU-145),GI50 (BT-549),GI50 (K562),GI50 (TK-10),GI50 (UO-31),GI50 (PC-3),GI50 (HCT-15) [µM],GI50 (MDA-MB-435),GI50 (OVCAR-3),GI50 (HOP-92)
COc1ccc(NC(=O)CC(=O)NNC(Sc2ccccc2)c2cc(/N=N/c3ccc(Br)cc3)ccc2O)cc1 (stereo not given),5.52 µM (inactive),> 10 µM (inactive),> 10 µM (inactive),> 10 µM (inactive),> 10 µM (inactive),> 10 µM (inactive),> 10 µM (inactive),> 10 µM (inactive),> 10 µM (inactive),> 10 µM (inactive),> 10 µM (inactive),> 10 µM (inactive),> 10 µM (inactive),> 10 µM (inactive),> 10,> 10 µM (inactive),2.21 µM (inactive),> 10 µM (inactive)
CC(=O)n1c2ccc(Br)cc2c2nc3ccccc3nc21,> 100 µM (inactive),> 100 µM (inactive),> 100 µM (inactive),> 100 µM (inactive),> 100 µM (inactive),> 100 µM (inactive),> 100 µM (inactive),95.1 µM (inactive),> 100 µM (inactive),> 100 µM (inactive),> 100 µM (inactive),> 100 µM (inactive),> 100 µM (inactive),> 100 µM (inactive),> 100,> 100 µM (inactive),> 100 µM (inactive),> 100 µM (inactive)
C/C(=N\Nc1nc2ccccc2n1C)c1ccc2ccccc2n1,7.24 µM (inactive),0.416 µM (active),0.0861 µM (active),5.04 µM (inactive),4.36 µM (inactive),0.144 µM (active),6.56 µM (inactive),3.13 µM (inactive),3.86 µM (inactive),> 22.3 µM (inactive),2.07 µM (inactive),2.53 µM (inactive),1.04 µM (active),0.212 µM (active),,4.24 µM (inactive),0.0489 µM (active),2.48 µM (inactive)
O=C(O)c1cc2ccccc2oc1=O [COUMARIN-3-CARBOXYLIC ACID],> 100 µM (inactive),> 100 µM (inactive),> 100 µM (inactive),> 100 µM (inactive),> 100 µM (inactive),> 100 µM (inactive),> 100 µM (inactive),> 100 µM (inactive),> 100 µM (inactive),> 100 µM (inactive),> 100 µM (inactive),> 100 µM (inactive),> 100 µM (inactive),> 100 µM (inactive),> 100,> 100 µM (inactive),> 100 µM (inactive),> 100 µM (inactive)
O=C(/C=C/c1c[nH]c2ccccc12)c1ccccc1O,11.6 µM (inactive),7.64 µM (inactive),15.1 µM (inactive),5.5 µM (inactive),15.5 µM (inactive),5.97 µM (inactive),3.55 µM (inactive),14.3 µM (inactive),11.7 µM (inactive),12.4 µM (inactive),5.32 µM (inactive),18.3 µM (inactive),2.82 µM (inactive),4.03 µM (inactive),9.89,4.88 µM (inactive),5.05 µM (inactive),4.68 µM (inactive)
O=[As](O)(O)c1ccc(Cc2ccc([As](=O)(O)O)cc2)cc1,1.34 µM (inactive),0.419 µM (active),0.778 µM (active),0.421 µM (active),0.499 µM (active),1.13 µM (inactive),1.35 µM (inactive),1.31 µM (inactive),0.336 µM (active),1.18 µM (inactive),0.265 µM (active),0.547 µM (active),1.24 µM (inactive),0.546 µM (active),1.17,0.577 µM (active),0.839 µM (active),1.5 µM (inactive)
COC1CC(C)([N+](=O)[O-])C(O)C(C)O1 (stereo not given),> 100 µM (inactive),> 100 µM (inactive),> 100 µM (inactive),> 100 µM (inactive),> 100 µM (inactive),> 100 µM (inactive),> 100 µM (inactive),> 100 µM (inactive),> 100 µM (inactive),91.6 µM (inactive),> 100 µM (inactive),> 100 µM (inactive),> 100 µM (inactive),> 100 µM (inactive),> 100,> 100 µM (inactive),> 100 µM (inactive),> 100 µM (inactive)
O=c1c2cc(Cl)ccc2[nH]c2cc(O)cc(O)c12,2.95 µM (inactive),> 10 µM (inactive),> 10 µM (inactive),> 10 µM (inactive),5.41 µM (inactive),4.12 µM (inactive),> 10 µM (inactive),> 10 µM (inactive),> 10 µM (inactive),> 10 µM (inactive),> 10 µM (inactive),> 10 µM (inactive),,> 10 µM (inactive),> 10,> 10 µM (inactive),8.55 µM (inactive),> 10 µM (inactive)
O=C1OC(c2ccccc2)N/C1=C\c1ccc2c(c1)OCO2 (stereo not given),98.9 µM (inactive),35.6 µM (inactive),> 100 µM (inactive),> 75.9 µM (inactive),> 100 µM (inactive),> 100 µM (inactive),> 77.1 µM (inactive),> 56.8 µM (inactive),> 100 µM (inactive),> 100 µM (inactive),> 100 µM (inactive),> 100 µM (inactive),> 100 µM (inactive),> 100 µM (inactive),> 100,> 100 µM (inactive),79.3 µM (inactive),> 100 µM (inactive)
COc1cc(N(C)C)ccc1C=c1c2ccccc2n2c1cc(-c1ccccc1)[n+]2C,0.33 µM (active),0.169 µM (active),0.325 µM (active),0.308 µM (active),0.319 µM (active),0.575 µM (active),0.469 µM (active),0.275 µM (active),0.323 µM (active),0.34 µM (active),0.177 µM (active),0.575 µM (active),0.493 µM (active),0.233 µM (active),0.979,0.358 µM (active),0.392 µM (active),0.319 µM (active)
CCCCCC1=CC(=O)C1(Cl)Cl,11.1 µM (inactive),5.24 µM (inactive),14.6 µM (inactive),10.5 µM (inactive),12.2 µM (inactive),20.1 µM (inactive),20.4 µM (inactive),21.4 µM (inactive),13.1 µM (inactive),17.9 µM (inactive),4.68 µM (inactive),5.81 µM (inactive),15.4 µM (inactive),14.5 µM (inactive),12.6,11.1 µM (inactive),8.69 µM (inactive),13.4 µM (inactive)
CC(=O)Oc1ccc(/C=C/C(=O)OCCOC(=O)/C=C/c2ccc(OC(C)=O)c(OC(C)=O)c2)cc1OC(C)=O,4.23 µM (inactive),2.93 µM (inactive),18.6 µM (inactive),7.14 µM (inactive),10.5 µM (inactive),14.8 µM (inactive),17.5 µM (inactive),1.26 µM (inactive),9.06 µM (inactive),15.7 µM (inactive),4.89 µM (inactive),10.2 µM (inactive),4.01 µM (inactive),12.1 µM (inactive),4.75,6.55 µM (inactive),5.36 µM (inactive),5.77 µM (inactive)
N=C(N)Nc1ccc(-c2ccc(NC(=N)N)cc2)cc1,9.12 µM (inactive),32.2 µM (inactive),45.5 µM (inactive),40.7 µM (inactive),> 73.5 µM (inactive),40.3 µM (inactive),34.4 µM (inactive),16.7 µM (inactive),25.9 µM (inactive),45.8 µM (inactive),35.4 µM (inactive),14.3 µM (inactive),46.1 µM (inactive),15.7 µM (inactive),49.5,55 µM (inactive),22 µM (inactive),45 µM (inactive)
O=C(NNS(=O)(=O)c1ccccc1)c1csc(NC(=S)NC2CCCCC2)n1,32.8 µM (inactive),26.2 µM (inactive),33.6 µM (inactive),18.5 µM (inactive),22.8 µM (inactive),35.6 µM (inactive),22.3 µM (inactive),58.3 µM (inactive),27.2 µM (inactive),25.4 µM (inactive),56.6 µM (inactive),35.6 µM (inactive),23.9 µM (inactive),34.2 µM (inactive),41.6,20.6 µM (inactive),4.07 µM (inactive),55.2 µM (inactive)
CCN(CC)C(=S)N/N=C/c1ccccn1,0.624 µM (active),< 0.01 µM (active),< 0.01 µM (active),0.166 µM (active),< 0.01 µM (active),< 0.01 µM (active),0.625 µM (active),< 0.01 µM (active),0.154 µM (active),0.37 µM (active),< 0.01 µM (active),,0.0415 µM (active),< 0.01 µM (active),< 0.01,0.12 µM (active),< 0.01 µM (active),0.113 µM (active)
CCOP(=O)(CN1CCNCCNCC1)OCC,26.6 µM (inactive),> 100 µM (inactive),> 100 µM (inactive),> 100 µM (inactive),> 100 µM (inactive),> 100 µM (inactive),> 100 µM (inactive),> 100 µM (inactive),> 100 µM (inactive),> 100 µM (inactive),> 100 µM (inactive),> 100 µM (inactive),> 100 µM (inactive),> 100 µM (inactive),> 100,> 100 µM (inactive),> 100 µM (inactive),> 100 µM (inactive)
